From patent US20090203877A1, “X-RAY-DENSE CONJUGATE” (Eberhard-Karls-Universitaet Tuebingen Universitaetsklinkum, priority 2006, published 2009) come the findings set out here.

Holding throughout (format): cell-based
In test [1] the test system is human malignant LN18 glioma cells. Briefly: Uptake/staining of cells by FITC-labelled conjugates (CLSM, FACS, semi-thin sections). Particulars: for staining rate / number of stained cells: free compound co-incubated with conjugate 3 (260 μM); for cells strongly stained by FITC, FACS histogram: free unbound compound incubated in combination with conjugate 3 (260 μM). As to the method: (§1) The human malignant U373 and LN18 glioma cells were cultivated in 75 cm^2 culture flasks (Corning Costar) (70% confluency) under the conditions as described under 1.4, detached from the flask bottom with Accutase™ (PAA Laboratories) and in the following distributed on Eppendorf tubes (Eppendorf, Hamburg, Germany) (6×10^6 per tube). The cells in the first tube serve as a control (only PBS buffer only). The cells in the other ten tubes were each incubated with benzoic acid (BA), monoiodobenzoic acid (MIBA) or diiodobenzoic acid (DIBA) alone (260 μM), conjugate 3 alone (260 μM), conjugate 3 plus either BA, MIBA or DIBA (260 μM), respectively, and the conjugates 9, 10, and 11 alone. (260 μM).
After an incubation of 20 minutes at 37° C./5% CO2 the cells were washed three times with PBS buffer and centrifuged at 800 rpm (rounds per minute) for 5 minutes. The fluorescence was measured in Becton Dickinson FACSCalibur as described under 1.4. The computer tomography was performed as described under 1.5.1. The examinations were repeated two times. […]
(§2) The FACS analysis was performed as described under 1.4. The assay was repeated two times.
(§3) For the CT and FACS examinations human LN18 and U373 glioma cells were cultivated in 75 cm^2 culture flasks (70% confluency) (conditions as described under section 1). Accutase™ (PAA Laboratories) was added to detach the cell from the culture bottom. The cells were collected and then distributed on Eppendorf-tubes (6×10^6 cells per tube). […] The next three tubes were used for the coincubation of the cells either with trichlorobenzoic acid (TCBA), trifluorobenzoic acid (TFBA) or tribromophenyl Isocyanat (TBPI) and the NLS-FITC-conjugate 3 (260 μM). As control cells were used which were only either incubated with CIBA, FIBA, TBPI (in each case 260 μM in PBS) or with PBS-buffer (native control) alone. […] The computer tomography and FACS analysis of the cell centrifuges were performed as described in 1.5.1 or 1.4, respectively for three times.
All measurements were performed on living cells.
All measurements were performed on living cells in triplicates.
A part of the cells which were stained for the FACS analysis, was fixed by paraformaldehyl with 2% Agar, dehydrogenized in ethanol, embedded in Lowicryl K4M (Polysciences, Eppelheim, Germany) and according to the information of the manufacturer UV-polymerised at room temperature. Semi-thin sections (about 0.4 μm) were cut and evaluated by means of fluorescence microscopy.

Test [2] deals with human malignant U373 glioma cells. Briefly: Uptake/staining of cells by FITC-labelled conjugates (fluorescence microscopy, CLSM, FACS, semi-thin sections). Conditions: free unbound compound incubated in combination with conjugate 3 (260 μM). How it is done:
Fluorescence was measured in a Becton Dickinson FACSCalibur. […] The investigations were performed in triplicate.
For CT and FACS human U373 glioma cells were grown under the same conditions in 75 cm^2 culture flasks (Corning Costar, Bodenheim, Germany) (70% confluency). Accutase™ (PAA laboratories, Pasching, Austria) was added to achieve detachment of the cells which were harvested and subsequently aliquoted into Eppendorf tubes (6×10^6 cells per tube). As in the investigations performed by fluorescence microscopy, the cells in the first tube served as a control (PBS only). The cells in the other tubes were incubated with 260 μM Ultravist, 260 μM TIBA in PBS and 26 μM, 260 μM and 2.6 mM conjugates 1-4 in PBS. After a 20 minute incubation period at 37° C. in an atmosphere of 5% CO2, the cells were washed three times in PBS and centrifuged at 800 rpm for 5 minutes.
The FACS analysis was performed as described under 1.4.
as §1
After an incubation of 20 minutes at 37° C./5% CO2 the cells were washed three times with PBS buffer and centrifuged at 800 rpm (rounds per minute) for 5 minutes. The fluorescence was measured in Becton Dickinson FACSCalibur as described under 1.4. The computer tomography was performed as described under 1.5.1. The examinations were repeated two times.
For the CT and FACS examinations human LN-18 and U373 glioma cells were cultivated in 75 cm^2 culture flasks (Corning Costar) (70% confluency) (conditions as described under 1.4). Accutase™ (PAA Laboratories) was added to detach the cells from the bottom of the culture flasks. The cells were collected and then distributed on Eppendorf tubes (6×10^6 cells per tube). The cells in the first two tubes serve as a control (in each case only PBS, LN18 and U373 glioma cells, native). The cells in the other tubes (in each case LN18 and U373 glioma cells) were incubated with a 260 μM or 2.6 mM solution of the conjugate 12 for 20 minutes at 37° C. and 5% CO2 and in the following washed for three times with PBS buffer and centrifuged for 5 minutes with 800 rpm (rounds per minute). For a small amount of the cells it was tested by the MMT test (see 1.4) how many of the cells were still viable. The computer tomography of the cell centrifuges was performed with the Somatom Sensation 16 (Siemens).
as §2
as §3, with “times. […]” for “times.”

Test [3] relates to human malignant LN18 glioma cells. The experiment in a line: Cell viability / cell death (annexin-V-Alexa 568 binding, propidium iodide, FACS scatter morphology). Conditions: for influence on the cell viability: free compound alone, each 250 μM (FIG. 15). As to the method:
All measurements were performed on living, non-fixed cells. […] All measurements were performed on living cells. […] All measurements were performed on living cells in triplicates. […] All measurements were performed on living cells.

[4] abbreviates: free compound co-incubated with conjugate 3 (260 μM).

“Also recorded” adds a separate entry of the source.

For “trichlorobenzoic acid [TCBA, reference compound]”, the figures for the “staining rate / number of stained cells” value in test [1] and in test [1] (listed as trichlorobenzoic acid) were “did not result in any considerable change” and “only few cells stained in their nuclei”, respectively. The “cells strongly stained by FITC, FACS histogram” value (“cells strongly stained by FITC” below) in test [1] and in test [2] was “no shift of the histogram peak to the right” in each case. Moreover, in test [3], the “influence on the cell viability” value is “did not result in any influence on the cell viability”. Further, the “cell death / vitality (annexin-V-Alexa 568, propidium iodide)” value (from here on “cell death / vitality”) in test [3] (setting [4]) is given as “did not result in any considerable change”; in test [3] (free compound co-incubated with conjugate 3 (260 μM), listed as trichlorobenzoic acid), “remain vital”.

As for “trifluorobenzoic acid [TFBA, reference compound]”, in test [1], the “staining rate / number of stained cells” value was “few stained cells; also recorded: did not result in any considerable change” and the “cells strongly stained by FITC” value is “no shift of the histogram peak to the right”. The “cells strongly stained by FITC” value in test [2] is reported as “no shift of the histogram peak to the right”. For the same substance, in test [3], the “influence on the cell viability” value is given as “did not result in any influence on the cell viability”. In test [3] (setting [4]), the “cell death / vitality” value is reported as “remain vital; also recorded: did not result in any considerable change”.

Regarding tribromophenylisocyanate [TBPI], the “staining rate / number of stained cells” value is reported as “only in the staining of the nucleus in few cells” in test [1] and “did not result in any considerable change” in test [1] (listed as TPBI). Also, the “cell death / vitality” value is “does not result in a cell death” in test [3] (260 μM, 20 min, substance alone); “without an impairment of the vitality” in test [3] (setting [4]); “did not result in any considerable change” in test [3] (free compound co-incubated with conjugate 3 (260 μM), listed as TPBI). For the same substance, the “influence on the cell viability” value in test [3] is on record as “did not result in any influence on the cell viability”.
